Measurements as given in patent publication US9862711B2, “Pyrazine derivatives as phosphatidylinositol 3-kinase inhibitors” (NOVARTIS AG, priority 2014, dated 2018).

Experiments:
Type in all cases: cell-based
[1] = system: IL-8-induced neutrophil shape change in human whole blood; experiment: Whole blood neutrophil shape change assay (Assay L); details: 2 nM IL-8, neutrophil shape change by flow cytometry, read-out: Assay L WBSC IC50
Protocol: Whole Blood Neutrophil Shape Change Assay (L)
A flow cytometry based method used to measure the inhibition of IL-8 (interleukin-8)-induced neutrophil shape change in human whole blood.
IL-8 was made up to 2 μM stocks in 0.1% bovine serum albumin/PBS and stored at −80° C. On the day IL-8 was diluted in PBS (phosphate buffered saline) 10 minutes before use. IL-8 was used at final concentration of 2 nM and a concentration range from […] to 200 nM for the donor dose response curve.
Assay fixative solution was prepared fresh each day from 10× concentrated CellFIX™ solution diluted 1:10 in sterile distilled water and then 1:4 with PBS. Assay fixative solution was kept on ice prior to use.
A 10× lysis buffer was prepared in advance by dissolving 20.75 g […] and 2.5 g KHCO3 in 250 ml sterile H2O. This 10× lysis buffer was filtered under sterile conditions and stored for up to two weeks at 4° C. On the day a 1× lysis solution was prepared with sterile distilled H2O and kept on ice prior to use.
The test compounds were prepared as 10 mM stock solutions in 100% DMSO and were stored at 4° C. Once in use for an assay 10 mM stock compounds were thawed and stored at RT protected from light. Compound dilutions were prepared fresh on the day. The first series of dilutions in 100% DMSO were done first thing in the morning. Only once blood had been collected and arrived in laboratory was the next set of dilutions into PBS carried out (1:10 PBS, 10% DMSO). This limited the exposure of diluted compound to plastic and made sure the exposure timing was consistent between assays. Compounds were added to the deep 96 well plates at 10× the final desired concentration (with addition of blood final [DMSO]=1%).
Table 3 illustrates the compound dilution series used in human whole blood neutrophil shape change assay.
On the day of running the assay, assay fixative buffer and 1× lysis solutions were prepared and stored on ice. Compound dilutions in 100% DMSO were prepared as described previously. Human whole blood was collected in K2 EDTA Vacutainers. Once blood was in the laboratory, compound dilutions into PBS were carried out as described previously and depicted in Table 1. 10 μl of 10× final compound concentration was added to appropriate wells of a deep 96-well plate except controls where 10 μl of 10% DMSO was added in place of compound, as outlined in the dilution series in Table 1. The outer wells of the deep well assay plate were filled with 1200 μl of sterile distilled H2O in an effort to limit edge effects (rows A1-H1, A1-A12, A12-H12). An IL-8 dose response was determined for each blood donor examined, to monitor the donor response to IL-8. At this step in assay preparation for the IL-8 dose response samples 10 μl of PBS was added to designated wells. In addition the assay window without DMSO was also assessed each day. For such samples at this step in assay preparation 10 μl of PBS was added in the place of 10% DMSO.
80 μl of whole blood was added to compound/10% DMSO/PBS and mixed once gently upon addition. Lids were placed on the 96 well plates and samples were incubated for 15 minutes at 37° C. in a water-bath.
Following the compound pre-incubation 10× final IL-8 was added to appropriate wells (10 μl of 20 nM working stock IL-8, final IL-8 concentration in blood=2 nM) and 10 μl of PBS was added to the un-stimulated controls. 10× final dose response range IL-8 was also added to designated wells (final concentration range on assay plate was 200 nM to 0.0005 nM, 1:5 serial dilution in PBS). The IL-8 and PBS were added to appropriate wells across all assay plates in the same sequence as the blood to compound addition. Once added to all assay plates, samples were mixed quickly once to ensure even distribution of IL-8. Samples were incubated for 5 minutes at 37° C. in a water-bath. Following the incubation sample plates were transferred to ice where 250 μl of chilled Assay Fixative Buffer was added promptly to all wells. […]

PI 3-kinase beta = PI 3-kinase beta (Homo sapiens (Human), UniProt P42338); experiment: Cellular p-Akt (S473) SureFire assay, Rat-1_PI3Kbeta cells (Assay I); details: p-AKT (Ser473) in Rat-1 cells expressing myr-HA-hp110 beta, 1 h compound; read-out: Assay I PI3Kβ IC50
Chain of PI 3-kinase beta (P42338 whole entry): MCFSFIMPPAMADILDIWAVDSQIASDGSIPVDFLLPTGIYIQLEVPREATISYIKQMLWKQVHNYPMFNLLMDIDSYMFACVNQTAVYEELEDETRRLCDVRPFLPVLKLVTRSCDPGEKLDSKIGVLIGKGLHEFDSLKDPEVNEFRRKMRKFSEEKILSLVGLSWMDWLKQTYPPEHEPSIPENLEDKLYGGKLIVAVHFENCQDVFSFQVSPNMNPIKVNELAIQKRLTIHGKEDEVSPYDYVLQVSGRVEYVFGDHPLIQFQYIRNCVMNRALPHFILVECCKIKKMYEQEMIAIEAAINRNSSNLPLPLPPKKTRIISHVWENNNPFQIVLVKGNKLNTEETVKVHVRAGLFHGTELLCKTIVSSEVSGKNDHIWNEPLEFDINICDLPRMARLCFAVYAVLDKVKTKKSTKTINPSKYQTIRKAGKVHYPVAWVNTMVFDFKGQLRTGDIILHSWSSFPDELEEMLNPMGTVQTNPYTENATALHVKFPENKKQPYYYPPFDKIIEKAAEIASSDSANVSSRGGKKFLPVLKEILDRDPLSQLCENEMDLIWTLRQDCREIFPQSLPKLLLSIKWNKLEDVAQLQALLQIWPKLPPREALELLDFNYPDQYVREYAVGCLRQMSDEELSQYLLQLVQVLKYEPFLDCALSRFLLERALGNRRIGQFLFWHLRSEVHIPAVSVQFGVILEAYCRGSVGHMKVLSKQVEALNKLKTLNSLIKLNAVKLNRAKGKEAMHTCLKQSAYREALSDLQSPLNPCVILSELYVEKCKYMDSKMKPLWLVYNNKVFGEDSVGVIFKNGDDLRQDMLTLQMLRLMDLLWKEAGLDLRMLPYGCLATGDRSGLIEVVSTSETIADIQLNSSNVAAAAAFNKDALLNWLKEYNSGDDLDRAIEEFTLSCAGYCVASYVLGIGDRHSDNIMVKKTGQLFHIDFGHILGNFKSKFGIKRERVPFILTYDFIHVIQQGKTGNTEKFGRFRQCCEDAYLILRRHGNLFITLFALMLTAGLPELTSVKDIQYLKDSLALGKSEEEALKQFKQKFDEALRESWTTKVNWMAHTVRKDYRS
Chain of PI 3-kinase beta (Q63787 whole entry partner): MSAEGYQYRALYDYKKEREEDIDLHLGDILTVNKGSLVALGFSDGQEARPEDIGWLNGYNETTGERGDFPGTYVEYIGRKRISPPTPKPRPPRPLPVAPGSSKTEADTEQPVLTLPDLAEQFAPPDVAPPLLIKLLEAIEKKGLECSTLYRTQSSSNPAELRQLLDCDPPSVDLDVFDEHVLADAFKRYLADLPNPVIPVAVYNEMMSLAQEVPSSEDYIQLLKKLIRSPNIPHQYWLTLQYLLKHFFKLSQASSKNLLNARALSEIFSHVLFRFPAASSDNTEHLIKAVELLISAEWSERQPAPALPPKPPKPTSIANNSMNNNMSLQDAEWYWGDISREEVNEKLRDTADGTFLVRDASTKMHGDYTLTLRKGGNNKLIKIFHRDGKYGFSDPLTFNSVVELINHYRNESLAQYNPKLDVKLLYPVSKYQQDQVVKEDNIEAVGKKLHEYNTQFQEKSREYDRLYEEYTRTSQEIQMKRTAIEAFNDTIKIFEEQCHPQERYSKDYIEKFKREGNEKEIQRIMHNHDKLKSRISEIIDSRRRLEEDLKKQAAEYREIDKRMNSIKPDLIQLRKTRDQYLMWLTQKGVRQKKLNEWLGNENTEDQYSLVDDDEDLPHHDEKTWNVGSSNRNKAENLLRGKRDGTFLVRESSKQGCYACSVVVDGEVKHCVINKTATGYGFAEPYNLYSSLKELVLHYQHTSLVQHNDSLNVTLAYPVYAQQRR
From the text: (§1) Cellular Assays for PI 3-Kinase Alpha (H), Beta (I) and Delta (J)
(§2) AlphaScreen (Amplified Luminescent Proximity Homogeneous Assay, ALPHA, Perkin Elmer) is a non-radioactive bead-based proximity assay technology to study biomolecular interactions in a homogenous microtiter plate format. The brand name SureFire denotes AlphaScreen assays that are adapted to quantify the phosphorylation of endogenous cellular proteins in cell lysates, by using matched antibody pairs, which consist of an anti-phospho-kinase and an anti-kinase antibody. The assay allows characterization of kinase signaling in cells as well as measurement of kinase inhibitor effects.
(§3) Rat-1 cell lines stably overexpressing activated PI 3-kinase class I isoforms Rat-1 pBABEpuro Myr-HA-hp110 delta clone 5 (Rat-1_PI3Kdelta) and Rat-1 pBABEpuro Myr-HA-hp110 alpha clone 6 (Rat-1_PI3Kalpha) and Rat-1 pBABEpuro Myr-HA-hp110 beta (Rat-1_PI3beta) were cultivated in complete growth medium (DMEM high glucose, 10% (v/v) fetal bovine serum, 1% (v/v) MEM NEAA, 10 mM HEPES, 2 mM L-glutamine, puromycin (10 μg/mL for Rat-1_PI3Kdelta and Rat-1_PI3Kalpha, 4 ug/mL for Rat-1_PI3beta), 1% (v/v) Pen/Strep) to 90% confluency at 37° C./5% CO2/90% humidity in a humidified CO2 incubator and were split twice a week. The following materials were used for p-AKT(5473) detection in Rat-1 cell lysates: Dulbecco's modified Eagle's medium (DMEM) high glucose (Gibco Invitrogen, Basel, Switzerland, Cat. No. 41965), heat inactivated fetal bovine serum, qualified (HI FBS; Gibco Invitrogen, Basel, Switzerland, Lot. No. 16140), MEM non essential amino acids (NEAA; Gibco Invitrogen, Basel, Switzerland, Cat. No. 11140), HEPES (Gibco Invitrogen, Basel, Switzerland, Cat. No. 15630), penicillin/streptomycin (Pen/Strep, 100×; Gibco Invitrogen, Basel, Switzerland, Cat. No. 15140-122), L-glutamine (Gibco Invitrogen, Basel, Switzerland, Cat. No. 25030), puromycin (Sigma Aldrich, Buchs, Switzerland, Cat. No. P9620), DMSO (MERCK, Dietikon, Switzerland, Cat. No. 8.02912.2500), H2O, MilliQ-H2O unless otherwise stated (MILLIPORE QGARDOOR1, Millipore, Zug, Switzerland), bovine serum albumine (BSA; Sigma Aldrich, Buchs, Switzerland Cat. No. A8412), SureFire p-Akt 1/2 (Ser473) Assay Kit (Perkin Elmer, Schwerzenbach, Switzerland, Cat. No. TGRAS50K).
(§4) The p-Akt (S473) SureFire assay measures the phosphorylation of endogenous cellular Akt 1/2 at Ser473 in cell lysates. Using Rat-1 cells stably expressing myr-HA-tagged versions of the human PI3Kdelta, PI3Kalpha, or PI3Kbeta p110 catalytic subunit isoforms, the assay was developed as a two-plate protocol in a 384-well format.
(§5) For compound testing, the cells were seeded at a density of 4000 (Rat-1_PI3Kdelta), 7500 (Rat-1_PI3Kalpha), or 6200 (Rat-1_PI3Kbeta) cells in 20 μl complete growth medium into cell culture treated 384-well plates and were grown at 37° C./5% CO2/90% humidity for 24 h. Shortly before compound transfer, the complete medium was removed, 30 μl assay buffer (DMEM high glucose, 1×MEM NEAA, 10 mM HEPES, 2 mM L-glutamine, 0.1% (w/v) BSA) was added and 10 μl of the compound predilutions were transferred to the cells. After treatment with compound for 1 h, the cells were lysed by the addition of 20 μl lysis buffer supplemented with 0.24% (w/v) BSA. Detection of p-AKT (Ser473) was performed with the SureFire p-Akt 1/2 (Ser473) Assay Kit according to the manufacturer's instructions using 5 ul of cell lysate in a total detection volume of 12 μl.
(§6) IC50 values of the percentage inhibition of each compound at 8 concentrations (usually 10, 3.0, 1.0, 0.3, 0.1, 0.030, 0.010 and 0.003 μM) n=2 were derived by fitting a sigmoidal dose-response curve to a plot of assay readout over inhibitor concentration as described. All fits were performed with the program XLfit4 (ID Business Solutions, Guildford, UK).

PI 3-kinase delta = PI 3-kinase delta (Homo sapiens (Human), UniProt O00329); experiment: Cellular p-Akt (S473) SureFire assay, Rat-1_PI3Kdelta cells (Assay J); details: p-AKT (Ser473) in Rat-1 cells expressing myr-HA-hp110 delta, 1 h compound; read-out: Assay J PI3Kδ IC50
Chain of PI 3-kinase delta (O00329 whole entry): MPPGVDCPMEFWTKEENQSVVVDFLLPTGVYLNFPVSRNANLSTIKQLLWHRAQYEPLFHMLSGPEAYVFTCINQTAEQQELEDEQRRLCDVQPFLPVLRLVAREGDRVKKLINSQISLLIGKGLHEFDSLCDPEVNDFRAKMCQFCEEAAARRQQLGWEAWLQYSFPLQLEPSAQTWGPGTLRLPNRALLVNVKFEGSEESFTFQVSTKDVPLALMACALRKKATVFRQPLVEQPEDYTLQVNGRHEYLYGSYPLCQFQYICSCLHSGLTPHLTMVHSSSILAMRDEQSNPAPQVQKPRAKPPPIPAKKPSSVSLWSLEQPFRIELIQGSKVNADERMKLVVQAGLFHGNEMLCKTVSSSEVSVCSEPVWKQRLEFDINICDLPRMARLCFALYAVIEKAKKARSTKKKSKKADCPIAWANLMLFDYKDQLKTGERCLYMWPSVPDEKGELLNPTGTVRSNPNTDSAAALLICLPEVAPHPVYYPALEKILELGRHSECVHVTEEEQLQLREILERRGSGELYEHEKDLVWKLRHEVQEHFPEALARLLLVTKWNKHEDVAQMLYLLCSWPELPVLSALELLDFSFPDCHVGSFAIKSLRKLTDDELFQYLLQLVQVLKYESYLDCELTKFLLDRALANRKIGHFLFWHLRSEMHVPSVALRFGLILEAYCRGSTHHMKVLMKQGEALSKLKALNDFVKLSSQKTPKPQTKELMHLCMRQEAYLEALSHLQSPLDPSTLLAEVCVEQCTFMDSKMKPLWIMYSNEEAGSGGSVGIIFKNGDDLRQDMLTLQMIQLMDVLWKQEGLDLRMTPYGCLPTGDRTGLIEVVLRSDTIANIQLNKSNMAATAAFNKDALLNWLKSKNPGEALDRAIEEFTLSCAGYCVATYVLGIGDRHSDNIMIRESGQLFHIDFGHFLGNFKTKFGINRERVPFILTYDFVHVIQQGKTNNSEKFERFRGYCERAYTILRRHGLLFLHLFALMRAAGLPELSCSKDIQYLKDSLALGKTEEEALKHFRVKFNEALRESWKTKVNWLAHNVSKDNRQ
Chain of PI 3-kinase delta (Q63787 whole entry partner): as the sequence (Q63787 whole entry partner) above
From the text: as §1, §2, §3, §4, §5, §6

PI 3-kinase alpha = PI 3-kinase alpha (Homo sapiens (Human), UniProt P42336); experiment: Cellular p-Akt (S473) SureFire assay, Rat-1_PI3Kalpha cells (Assay H); details: p-AKT (Ser473) in Rat-1 cells expressing myr-HA-hp110 alpha, 1 h compound; read-out: Assay H PI3Kα IC50
Chain of PI 3-kinase alpha (P42336 whole entry): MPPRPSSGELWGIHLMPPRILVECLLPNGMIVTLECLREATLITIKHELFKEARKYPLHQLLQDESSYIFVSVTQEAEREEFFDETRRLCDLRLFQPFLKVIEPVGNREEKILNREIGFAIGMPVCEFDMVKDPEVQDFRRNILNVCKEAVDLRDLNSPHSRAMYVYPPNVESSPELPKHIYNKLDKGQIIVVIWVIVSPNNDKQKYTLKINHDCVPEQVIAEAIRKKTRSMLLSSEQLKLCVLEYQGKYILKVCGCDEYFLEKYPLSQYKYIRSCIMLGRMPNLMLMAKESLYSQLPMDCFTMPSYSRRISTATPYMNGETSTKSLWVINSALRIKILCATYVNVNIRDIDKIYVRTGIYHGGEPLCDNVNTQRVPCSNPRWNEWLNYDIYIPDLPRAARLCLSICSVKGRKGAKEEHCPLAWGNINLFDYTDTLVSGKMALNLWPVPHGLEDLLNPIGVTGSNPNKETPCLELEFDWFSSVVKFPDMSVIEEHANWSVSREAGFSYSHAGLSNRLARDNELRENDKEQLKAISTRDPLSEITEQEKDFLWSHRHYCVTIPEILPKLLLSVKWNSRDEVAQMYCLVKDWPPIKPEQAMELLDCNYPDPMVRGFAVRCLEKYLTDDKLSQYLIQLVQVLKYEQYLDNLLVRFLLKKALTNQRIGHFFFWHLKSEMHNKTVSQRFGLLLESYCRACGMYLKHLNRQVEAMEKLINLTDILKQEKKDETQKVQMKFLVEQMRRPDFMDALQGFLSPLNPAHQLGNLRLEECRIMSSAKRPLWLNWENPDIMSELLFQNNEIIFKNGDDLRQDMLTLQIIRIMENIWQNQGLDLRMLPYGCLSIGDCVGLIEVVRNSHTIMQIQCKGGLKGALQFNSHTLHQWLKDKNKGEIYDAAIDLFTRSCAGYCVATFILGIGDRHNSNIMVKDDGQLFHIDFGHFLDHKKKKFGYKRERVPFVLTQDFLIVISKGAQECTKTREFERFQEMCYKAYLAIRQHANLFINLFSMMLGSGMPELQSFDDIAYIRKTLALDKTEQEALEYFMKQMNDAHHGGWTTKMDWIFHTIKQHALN
Chain of PI 3-kinase alpha (Q63787 whole entry partner): as the sequence (Q63787 whole entry partner) above
From the text: as §1, §2, §3, §4, §5, §6

IC50 [1] [nM] | IC50 (PI 3-kinase beta) [nM] | IC50 (PI 3-kinase delta) [nM] | IC50 (PI 3-kinase alpha) [nM] | SMILES
212 | – | – | – | Cc1ccc(S(=O)(=O)NC[C@H]2C[C@@H](O)C2)cc1-c1cncc(-c2cn(C)nc2C)n1 [Example 7, Cis 3-[6-(1,3-Dimethyl-1H-pyrazol-4-yl)-pyrazin-2-yl]-N-(3-hydroxy-cyclobutylmethyl)-4-methyl-benzenesulfonamide]
847 | – | – | – | Cc1cc(-c2cncc(-c3cc(S(=O)(=O)NC[C@H]4C[C@@H](O)C4)ccc3C)n2)n(C)n1 [Example 13, Cis 3-[6-(2,5-Dimethyl-2H-pyrazol-3-yl)-pyrazin-2-yl]-N-(3-hydroxy-cyclobutylmethyl)-4-methyl-benzenesulfonamide]
830 | 1110 | 306 | 1140 | Cc1ccc(S(=O)(=O)N[C@H]2CC[C@H](O)CC2)cc1-c1cncc(-c2csc(CN3CCOCC3)c2)n1 [Example 12, Trans N-(4-Hydroxy-cyclohexyl)-4-methyl-3-[6-(5-morpholin-4-ylmethyl-thiophen-3-yl)-pyrazin-2-yl]-benzenesulfonamide]
374 | 1050 | 515 | 709 | Cc1ccc(S(=O)(=O)NC2CC3(CC(O)C3)C2)cc1-c1cncc(-c2cn(C)nc2C)n1 (stereo not shown) [Example 6, 3-[6-(1,3-Dimethyl-1H-pyrazol-4-yl)-pyrazin-2-yl]-N-(6-hydroxy-spiro[3.3]hept-2-yl)-4-methyl-benzenesulfonamide]
